Test results as given in PubChem BioAssay AID1963846 (Molecular Pharmacology Branch, DTP, NCI, 2024).
pIC50: −log10 of the molar value.

Tested on: 454973-116-R2-J3-PDC complex spheroid viability
Assay: Anticancer human tumor 454973-116-R2-J3-PDC patient-derived pancreatic carcinoma cell line growth inhibition [POLQ]
Details: for pIC50: curve of first compound; for viability, T/C: stronger effect = lower value
How it was run: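 Three-cell-type spheroids modelling solid tumor plus stroma served as the readout system; POL inhibitors were tested individually and in combination, concentration ranges set by clinical Cmax where known.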
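Further: spheroids exposed to drugs for seven days before measurement.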
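Wherever viability, T/C is given: percent viability relative to DMSO vehicle control wells taken as 100%.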

CC1COCCN1c1cc(C2(O)CC3CCC(C2)O3)c2cnn(-c3ccn[nH]3)c2n1 (centres undefined) + Cc1cccc(N(C)C(=O)C2C(O)CCN2c2nc(C)cc(C(F)(F)F)c2C#N)c1 showed a pIC50 (second compound 0.0316 µM) of 6.72, a pIC50 (second compound 0.1 µM) of 6.67 and a pIC50 (second compound 0.316 µM) of 6.70. The pIC50 (second compound 1 µM) was 6.71, the pIC50 (second compound 3.16 µM) was 6.74 and the pIC50 (second compound 10 µM) was 6.79. For the same molecule, the viability, T/C (second compound 0.0316 µM, first compound 0.0316 µM) was 91.2%, the viability, T/C (second compound 0.0316 µM, first compound 0.1 µM) was 70% and the viability, T/C (second compound 0.0316 µM, first compound 0.316 µM) was 33.4%. The viability, T/C (second compound 0.0316 µM, first compound 1 µM) was 22.8%, the viability, T/C (second compound 0.0316 µM, first compound 3.16 µM) was 20.6% and the viability, T/C (second compound 0.0316 µM, first compound 10 µM) was 13.2%. It also gave a viability, T/C (second compound 0.1 µM, first compound 0.0316 µM) of 90.6%, a viability, T/C (second compound 0.1 µM, first compound 0.1 µM) of 80.9% and a viability, T/C (second compound 0.1 µM, first compound 0.316 µM) of 33.5%. The viability, T/C (second compound 0.1 µM, first compound 1 µM) was 20.6%, the viability, T/C (second compound 0.1 µM, first compound 3.16 µM) was 21.5% and the viability, T/C (second compound 0.1 µM, first compound 10 µM) was 15.5%. The viability, T/C (second compound 0.316 µM, first compound 0.0316 µM) was 93.9%, the viability, T/C (second compound 0.316 µM, first compound 0.1 µM) was 73.1% and the viability, T/C (second compound 0.316 µM, first compound 0.316 µM) was 34.3%. For the same molecule, the viability, T/C (second compound 0.316 µM, first compound 1 µM) was 21.2%, the viability, T/C (second compound 0.316 µM, first compound 3.16 µM) was 22.8% and the viability, T/C (second compound 0.316 µM, first compound 10 µM) was 15.8%. It also gave a viability, T/C (second compound 1 µM, first compound 0.0316 µM) of 102%, a viability, T/C (second compound 1 µM, first compound 0.1 µM) of 73% and a viability, T/C (second compound 1 µM, first compound 0.316 µM) of 33%. For the same molecule, the viability, T/C (second compound 1 µM, first compound 1 µM) was 21.9%, the viability, T/C (second compound 1 µM, first compound 3.16 µM) was 20.1% and the viability, T/C (second compound 1 µM, first compound 10 µM) was 14.5%. The viability, T/C (second compound 3.16 µM, first compound 0.0316 µM) was 98.5%, the viability, T/C (second compound 3.16 µM, first compound 0.1 µM) was 67.6% and the viability, T/C (second compound 3.16 µM, first compound 0.316 µM) was 34.7%. For the same molecule, the viability, T/C (second compound 3.16 µM, first compound 1 µM) was 16.8%, the viability, T/C (second compound 3.16 µM, first compound 3.16 µM) was 26% and the viability, T/C (second compound 3.16 µM, first compound 10 µM) was 16.2%. For the same molecule, the viability, T/C (second compound 10 µM, first compound 0.0316 µM) was 105%, the viability, T/C (second compound 10 µM, first compound 0.1 µM) was 60.5% and the viability, T/C (second compound 10 µM, first compound 0.316 µM) was 36.7%. It also gave a viability, T/C (second compound 10 µM, first compound 1 µM) of 21.4%, a viability, T/C (second compound 10 µM, first compound 3.16 µM) of 28.3% and a viability, T/C (second compound 10 µM, first compound 10 µM) of 17.2%.

In the case of CC(=O)O[C@H]1C(=O)[C@@]2(C)[C@H]([C@H](OC(=O)c3ccccc3)[C@]3(O)C[C@H](OC(=O)[C@H](O)[C@@H](NC(=O)c4ccccc4)c4ccccc4)C(C)=C1C3(C)C)[C@]1(OC(C)=O)CO[C@@H]1C[C@@H]2O + Nc1ccc(C#CCN(C(=O)Cc2ncc(C(F)(F)F)cc2C(F)(F)F)c2ccc(F)cc2)nn1, the pIC50 (second compound 0.0316 µM) was greater than 8.02, the pIC50 (second compound 0.1 µM) was greater than 8.02 and the pIC50 (second compound 0.316 µM) was greater than 8.02. For the same molecule, the pIC50 (second compound 1 µM) was greater than 8.02, the pIC50 (second compound 3.16 µM) was greater than 8.02 and the pIC50 (second compound 10 µM) was greater than 8.02. For the same molecule, the viability, T/C (second compound 0.0316 µM, first compound 0.00949 µM) was 6.03%, the viability, T/C (second compound 0.0316 µM, first compound 0.03 µM) was 5.37% and the viability, T/C (second compound 0.0316 µM, first compound 0.0949 µM) was 4.33%. For the same molecule, the viability, T/C (second compound 0.0316 µM, first compound 0.3 µM) was 4.12%, the viability, T/C (second compound 0.0316 µM, first compound 0.949 µM) was 5.17% and the viability, T/C (second compound 0.0316 µM, first compound 3 µM) was 4.92%. The viability, T/C (second compound 0.1 µM, first compound 0.00949 µM) was 6.43%, the viability, T/C (second compound 0.1 µM, first compound 0.03 µM) was 5.72% and the viability, T/C (second compound 0.1 µM, first compound 0.0949 µM) was 5.37%. For the same molecule, the viability, T/C (second compound 0.1 µM, first compound 0.3 µM) was 3.72%, the viability, T/C (second compound 0.1 µM, first compound 0.949 µM) was 4.36% and the viability, T/C (second compound 0.1 µM, first compound 3 µM) was 5.13%. It also gave a viability, T/C (second compound 0.316 µM, first compound 0.00949 µM) of 6.26%, a viability, T/C (second compound 0.316 µM, first compound 0.03 µM) of 5.71% and a viability, T/C (second compound 0.316 µM, first compound 0.0949 µM) of 3.79%. For the same molecule, the viability, T/C (second compound 0.316 µM, first compound 0.3 µM) was 4.86%, the viability, T/C (second compound 0.316 µM, first compound 0.949 µM) was 4.32% and the viability, T/C (second compound 0.316 µM, first compound 3 µM) was 5.03%. It also gave a viability, T/C (second compound 1 µM, first compound 0.00949 µM) of 6.64%, a viability, T/C (second compound 1 µM, first compound 0.03 µM) of 7.67% and a viability, T/C (second compound 1 µM, first compound 0.0949 µM) of 5.72%. It also gave a viability, T/C (second compound 1 µM, first compound 0.3 µM) of 4.36%, a viability, T/C (second compound 1 µM, first compound 0.949 µM) of 4.31% and a viability, T/C (second compound 1 µM, first compound 3 µM) of 4.88%. For the same molecule, the viability, T/C (second compound 3.16 µM, first compound 0.00949 µM) was 6.84%, the viability, T/C (second compound 3.16 µM, first compound 0.03 µM) was 4.76% and the viability, T/C (second compound 3.16 µM, first compound 0.0949 µM) was 4.25%. For the same molecule, the viability, T/C (second compound 3.16 µM, first compound 0.3 µM) was 4.05%, the viability, T/C (second compound 3.16 µM, first compound 0.949 µM) was 5.59% and the viability, T/C (second compound 3.16 µM, first compound 3 µM) was 4.37%. It also gave a viability, T/C (second compound 10 µM, first compound 0.00949 µM) of 6.5%, a viability, T/C (second compound 10 µM, first compound 0.03 µM) of 4.13% and a viability, T/C (second compound 10 µM, first compound 0.0949 µM) of 4.66%. The viability, T/C (second compound 10 µM, first compound 0.3 µM) was 4.52%, the viability, T/C (second compound 10 µM, first compound 0.949 µM) was 4.25% and the viability, T/C (second compound 10 µM, first compound 3 µM) was 4.89%.
